Assay results published in US12459951B2, “Compounds that interact with RAS superfamily proteins for treatment of cancers, inflammatory diseases, rasopathies, and fibrotic disease” (SHY Therapeutics, LLC, priority 2022, dated 2025).

System: Erk1/2 phosphorylation
Test: Erk1/2 Phosphorylation Assay (western blot), Panc-1
Format: cell-based, human
Details: at 10 μM, * = activation
How it was run: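 KRas G12D Panc-1 cells were treated 6 h at 37° C with compound at 10 μM or serial dilutions for IC50 (0.3% DMSO). In method 1, cells were serum-starved overnight (0.5% FBS) and then given 1.5 ng/ml EGF for 15 min. In method 2, cells stayed in 10% FBS without stimulation. Lysate phospho-Erk1/2 (Thr202/Tyr204) was read by western blot.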

SMILES | % inh of Erk1/2 phosphorylation in Panc-1
Cn1ccnc1-c1nc(OCCN2CCCC2)c2c(-c3ccccc3)ccn2n1 [Compound 41, 2-(1-Methyl-1H-imidazol-2-yl)-5-phenyl-4-(2-(pyrrolidin-1-yl)ethoxy)pyrrolo[2,1-f][1,2,4]triazine] | 0 (0% inhibition)
Cc1c(-c2ccn(C)n2)cn2nc(-c3nccn3C)nc(Nc3cc(C(F)F)[nH]n3)c12 [Compound 258, N-(5-(Difluoromethyl)-1H-pyrazol-3-yl)-5-methyl-2-(1-methyl-1H-imidazol-2-yl)-6-(1-methyl-1H-pyrazol-3-yl)pyrrolo[2,1-f][1,2,4]triazin-4-amine] | A* (1-25% activation)
COc1cccc(Nc2nc(-c3nccn3C)nn3ccc(C)c23)n1 [Compound 38, N-(6-Methoxypyridin-2-yl)-5-methyl-2-(1-methyl-1H-imidazol-2-yl)pyrrolo[2,1-f][1,2,4]triazin-4-amine] | 0 (0% inhibition)
CO[C@H]1C[C@H](Nc2nc(-c3nccn3C)nn3cc(-c4ccn(C)n4)c(C4CC4)c23)C1 [Compound 275, 5-Cyclopropyl-N-((1r,3r)-3-methoxycyclobutyl)-2-(1-methyl-1H-imidazol-2-yl)-6-(1-methyl-1H-pyrazol-3-yl)pyrrolo[2,1-f][1,2,4]triazin-4-amine] | 0 (0% inhibition)
Cc1c(-c2ccn(C)n2)cn2nc(-c3nccn3C)nc(Nc3cc(-c4ccccn4)ccn3)c12 [Compound 248, N-([2,4′-Bipyridin]-2′-yl)-5-methyl-2-(1-methyl-1H-imidazol-2-yl)-6-(1-methyl-1H-pyrazol-3-yl)pyrrolo[2,1-f][1,2,4]triazin-4-amine] | C* (46-84% activation)
Cc1c(-c2ccn(C)n2)cn2nc(-c3nccn3C)nc(Nc3cc(C(C)C)[nH]n3)c12 [Compound 268, N-(5-Isopropyl-1H-pyrazol-3-yl)-5-methyl-2-(1-methyl-1H-imidazol-2-yl)-6-(1-methyl-1H-pyrazol-3-yl)pyrrolo[2,1-f][1,2,4]triazin-4-amine] | D* (85-100% activation)
COc1cccc(-c2cn3nc(-c4nccn4C)nc(N[C@@H]4CC[C@H]4OC)c3c2-c2ccccc2)c1C (racemic) [Compound 272, rac 6-(3-Methoxy-2-methylphenyl)-N-((1R,2R)-2-methoxycyclobutyl)-2-(1-methyl-1H-imidazol-2-yl)-5-phenylpyrrolo[2,1-f][1,2,4]triazin-4-amine] | D (85-100% inhibition)
Cc1c(-c2ccn(C)n2)cn2nc(-c3nccn3C)nc(-n3[nH]c(N)cc3=O)c12 [Compound 261, 5-Amino-2-(5-methyl-2-(1-methyl-1H-imidazol-2-yl)-6-(1-methyl-1H-pyrazol-3-yl)pyrrolo[2,1-f][1,2,4]triazin-4-yl)-1,2-dihydro-3H-pyrazol-3-one] | B (26-49% inhibition)
Cc1c(-c2ccn(C)n2)cn2nc(-c3nccn3C)nc(Nc3cc(C(F)(F)F)[nH]n3)c12 [Compound 259, 5-Methyl-2-(1-methyl-1H-imidazol-2-yl)-6-(1-methyl-1H-pyrazol-3-yl)-N-(5-(trifluoromethyl)-1H-pyrazol-3-yl)pyrrolo[2,1-f][1,2,4]triazin-4-amine] | A* (1-25% activation)
Cc1c(-c2ccn(C)n2)cn2nc(-c3nccn3C)nc(Nc3cc(-c4cccnc4)ccn3)c12 [Compound 250, N-([3,4′-Bipyridin]-2′-yl)-5-methyl-2-(1-methyl-1H-imidazol-2-yl)-6-(1-methyl-1H-pyrazol-3-yl)pyrrolo[2,1-f][1,2,4]triazin-4-amine] | C* (46-84% activation)
CCOc1cc(Nc2nc(-c3nccn3C)nn3cc(-c4ccn(C)n4)c(C)c23)n[nH]1 [Compound 260, N-(5-Ethoxy-1H-pyrazol-3-yl)-5-methyl-2-(1-methyl-1H-imidazol-2-yl)-6-(1-methyl-1H-pyrazol-3-yl)pyrrolo[2,1-f][1,2,4]triazin-4-amine] | A* (1-25% activation)
Cc1c(-c2ccn(C)n2)cn2nc(-c3nccn3C)nc(Nc3cc(C4CCC4)[nH]n3)c12 [Compound 257, N-(5-Cyclobutyl-1H-pyrazol-3-yl)-5-methyl-2-(1-methyl-1H-imidazol-2-yl)-6-(1-methyl-1H-pyrazol-3-yl)pyrrolo[2,1-f][1,2,4]triazin-4-amine] | C* (46-84% activation)
Cc1c(-c2ccn(C)n2)cn2nc(-c3nccn3C)nc(Nc3cc(-c4ccncc4)[nH]n3)c12 [Compound 266, 5-Methyl-2-(1-methyl-1H-imidazol-2-yl)-6-(1-methyl-1H-pyrazol-3-yl)-N-(5-(pyridin-4-yl)-1H-pyrazol-3-yl)pyrrolo[2,1-f][1,2,4]triazin-4-amine] | D (85-100% inhibition)
Cc1c(-c2ccn(C)n2)cn2nc(-c3nccn3C)nc(N3CCc4cc(C(F)(F)F)cnc43)c12 [Compound 251, 5-Methyl-2-(1-methyl-1H-imidazol-2-yl)-6-(1-methyl-1H-pyrazol-3-yl)-4-(5-(trifluoromethyl)-2,3-dihydro-1H-pyrrolo[2,3-b]pyridin-1-yl)pyrrolo[2,1-f][1,2,4]triazine] | B (26-49% inhibition)
Cc1c(-c2ccn(C)n2)cn2nc(-c3nccn3C)nc(Nc3ccc(-c4ccccn4)cn3)c12 [Compound 249, N-([2,3′-Bipyridin]-6′-yl)-5-methyl-2-(1-methyl-1H-imidazol-2-yl)-6-(1-methyl-1H-pyrazol-3-yl)pyrrolo[2,1-f][1,2,4]triazin-4-amine] | D* (85-100% activation)
Cc1cc(Nc2nc(-c3nccn3C)nn3cc(-c4ccn(C)n4)c(C)c23)n[nH]1 [Compound 255, 5-Methyl-2-(1-methyl-1H-imidazol-2-yl)-6-(1-methyl-1H-pyrazol-3-yl)-N-(5-methyl-1H-pyrazol-3-yl)pyrrolo[2,1-f][1,2,4]triazin-4-amine] | A (1-25% inhibition)
Cc1c(-c2ccn(C)n2)cn2nc(-c3nccn3C)nc(Nc3cc[nH]n3)c12 [Compound 256, 5-Methyl-2-(1-methyl-1H-imidazol-2-yl)-6-(1-methyl-1H-pyrazol-3-yl)-N-(1H-pyrazol-3-yl)pyrrolo[2,1-f][1,2,4]triazin-4-amine] | C (50-84% inhibition)
Cc1c(-c2ccn(C)n2)cn2nc(-c3nccn3C)nc(Nc3ccc(N4CCOCC4)cn3)c12 [Compound 247, 5-Methyl-2-(1-methyl-1H-imidazol-2-yl)-6-(1-methyl-1H-pyrazol-3-yl)-N-(5-morpholinopyridin-2-yl)pyrrolo[2,1-f][1,2,4]triazin-4-amine] | D* (85-100% activation)
Cc1[nH]nc(Nc2nc(-c3nccn3C)nn3cc(-c4ccn(C)n4)c(C)c23)c1C [Compound 267, N-(4,5-Dimethyl-1H-pyrazol-3-yl)-5-methyl-2-(1-methyl-1H-imidazol-2-yl)-6-(1-methyl-1H-pyrazol-3-yl)pyrrolo[2,1-f][1,2,4]triazin-4-amine] | D* (85-100% activation)
COc1cc(Nc2nc(-c3nccn3C)nn3cc(-c4ccn(C)n4)c(C)c23)n[nH]1 [Compound 252, N-(5-Methoxy-1H-pyrazol-3-yl)-5-methyl-2-(1-methyl-1H-imidazol-2-yl)-6-(1-methyl-1H-pyrazol-3-yl)pyrrolo[2,1-f][1,2,4]triazin-4-amine] | A* (1-25% activation)
